Source: ChEMBL document CHEMBL1130585, “New antifungals selected by molecular topology” (1998)
Converted amounts (≈) assume the structure as drawn. The source made the active and inactive calls. The rule behind the calls is not given here.

Legend:
Saccharomyces cerevisiae [1] = test: Compound was evaluated for inhibitory activity against Saccharomyces cerevisiae; 4-6.4; format: functional
Candida albicans [2] = test: Compound was evaluated for inhibitory activity against Candida albicans; 4-6.4; format: functional
Candida albicans [3] = test: Compound was evaluated for inhibitory activity against Candida albicans; IA= Inactive; format: functional, organism-based
Saccharomyces cerevisiae [4] = test: Compound was evaluated for inhibitory activity against Saccharomyces cerevisiae; IA= Inactive; format: functional, organism-based
Candida albicans [5] = test: Compound was evaluated for inhibitory activity against Candida albicans; 2-3.2; format: functional
Saccharomyces cerevisiae [6] = test: Compound was evaluated for inhibitory activity against Saccharomyces cerevisiae; 2-3.2; format: functional
Saccharomyces cerevisiae [7] = test: Compound was evaluated for inhibitory activity against Saccharomyces cerevisiae; 3.2-4; format: functional
Candida albicans [8] = test: Compound was evaluated for inhibitory activity against Candida albicans; 3.2-4; format: functional
Candida albicans [9] = test: Compound was evaluated for inhibitory activity against Candida albicans; format: functional
Candida albicans [10] = test: microbe, parasite or virus in culture
Saccharomyces cerevisiae [11] = test: Compound was evaluated for inhibitory activity against Saccharomyces cerevisiae; format: functional
Saccharomyces cerevisiae [12] = test: microbe, parasite or virus in culture
Saccharomyces cerevisiae [13] = test: Compound was evaluated for inhibitory activity against Saccharomyces cerevisiae; IA = Inactive; format: functional, organism-based

With `BrC1[C@H]2C[C@@H]3C[C@@H](C[C@H]1C3)C2` (some centres undefined) the MIC (Saccharomyces cerevisiae [1]) was 4 µg/mL (≈ 18.6 µM) and the MIC (Candida albicans [2]) was 4 µg/mL (≈ 18.6 µM).

For `Brc1sc(Br)c(Br)c1Br`, the MIC (Candida albicans [3]) was “inactive” and the MIC (Saccharomyces cerevisiae [4]) was “inactive”.

Compound `O=C(Nc1ccccc1)c1ccccc1O` [SALICYLANILIDE] has an MIC (Candida albicans [5]) of 2 µg/mL (≈ 9.38 µM) and an MIC (Saccharomyces cerevisiae [6]) of 2 µg/mL (≈ 9.38 µM).

`O=c1sc2sc(=O)sc2s1` was tested, and the MIC (Candida albicans [5]) was 2 µg/mL (≈ 9.6 µM) and the MIC (Saccharomyces cerevisiae [6]) was 2 µg/mL (≈ 9.6 µM).

`BrCCc1c[nH]c2ccccc12` showed an MIC (Candida albicans [5]) of 2 µg/mL (≈ 8.92 µM) and an MIC (Saccharomyces cerevisiae [6]) of 2 µg/mL (≈ 8.92 µM).

`CCC(=O)O` [PROPIONIC ACID] was tested, and the MIC (Saccharomyces cerevisiae [7]) was 3.2 µg/mL (≈ 43.2 µM) and the MIC (Candida albicans [8]) was 3.2 µg/mL (≈ 43.2 µM).

For `CC1(CBr)C2CCC1(CBr)C(=O)C2` (centres undefined), the MIC (Candida albicans [3]) was “inactive” and the MIC (Saccharomyces cerevisiae [4]) was “inactive”.

In the case of `Clc1ccc(COC(Cn2ccnc2)c2ccc(Cl)cc2Cl)c(Cl)c1` (centres undefined) [MICONAZOLE], the MIC (Candida albicans [9]) was < 1.6 µg/mL, the MIC (Candida albicans [10]) was 1.6 µg/mL (≈ 3.84 µM) and the MIC (Saccharomyces cerevisiae [11]) was < 1.6 µg/mL. It also gave an MIC (Saccharomyces cerevisiae [12]) of 1.6 µg/mL (≈ 3.84 µM).

`Cc1c(Cc2c(C)n(C)n(-c3ccccc3)c2=O)c(=O)n(-c2ccccc2)n1C` was tested, and the MIC (Saccharomyces cerevisiae [13]) was “inactive” and the MIC (Candida albicans [3]) was “inactive”.

`Oc1c(I)cc(I)c2cccnc12` was tested, and the MIC (Saccharomyces cerevisiae [13]) was “inactive” and the MIC (Candida albicans [3]) was “inactive”.

`[Cl-].[Cl-].c1ccc(-c2nn(-c3ccccc3)[n+](-c3ccc(-c4ccc(-[n+]5nc(-c6ccccc6)nn5-c5ccccc5)cc4)cc3)n2)cc1` [NEOTETRAZOLIUM CHLORIDE] was tested, and the MIC (Candida albicans [9]) was < 1.6 µg/mL and the MIC (Saccharomyces cerevisiae [11]) was < 1.6 µg/mL.
